# Experimental data published in PubChem BioAssay AID812 (SRMLSC, 2007).
# The source made the active and inactive calls. How the calls were made is not given here.
# Tested on: Saccharomyces cerevisiae lifespan extension, no nicotinamide
# Test: yeast lifespan extension without nicotinamide, confirmation, yeast lifespan extension project, S. cerevisiae (AID 812);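 further: growth read as optical density after 42 hours of incubation at 30C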
row,Compound,EC50
1,CC(C)Cc1nn2c(=O)cc(O)nc2s1,> 40 µM (inactive)
2,CCOc1cc(/C=C\[N+](=O)[O-])ccc1OCC(=O)Nc1ccccc1C,> 40 µM (inactive)
3,CCN(CCO)C(=O)C12CCC(C)(C(=O)C1)C2(C)C (stereo unspecified),> 40 µM (inactive)
4,O=C(NNC1=Nc2cccc3cccc1c23)c1ccccc1Br,> 40 µM (inactive)
5,CC1=NN(c2ccc(C(F)(F)F)cn2)C(=O)C1,> 40 µM (inactive)
6,COc1ccc(C(=O)C(CN2CCOCC2)c2ccccc2)cc1 (stereo unspecified),> 40 µM (inactive)
7,COc1cccc(CSc2nc3ccccc3cc2C=O)c1,> 40 µM (inactive)
8,COc1ccc(-c2noc(CSc3nnc(-c4ccncc4)n3-c3ccc(F)cc3)n2)cc1OC,> 40 µM (inactive)
9,Cc1cc(C)cc(CC2CC(=O)N(c3ccc(Cl)cn3)C2=O)c1 (stereo unspecified),> 40 µM (inactive)
10,C=C(C(=O)c1ccccc1)C(C)C(=C)C(=O)c1ccccc1,> 40 µM (inactive)
11,Nc1cccc2c1C(=O)N(C(=O)c1ccc(Cl)c(S(=O)(=O)N3CCCCCC3)c1)C2=O,> 40 µM (inactive)
12,Cn1c(=O)c2c(nc(Br)n2Cc2ccc3ccccc3c2)n(C)c1=O,> 40 µM (inactive)
13,N=c1c2c(-c3ccccc3)c(-c3ccccc3)n(Cc3ccco3)c2ncn1CCCn1ccnc1,> 40 µM (inactive)
14,COC(=O)CC1=NN(c2ccccc2)C(=O)/C1=C\c1ccc(OC)cc1,> 40 µM (inactive)
15,Cc1[nH]n(-c2ccccc2)c(=O)c1N=Nc1nccs1,> 40 µM (inactive)
16,O=C(Nc1scc(-c2cccs2)c1C(=O)O)c1cccs1,> 40 µM (inactive)
17,Cc1nc(SC(C)C)[nH]c(=O)c1Cc1ccccc1,> 40 µM (inactive)
18,O=C(Nc1scc(-c2ccc(F)cc2)c1C(=O)O)c1ccco1,> 40 µM (inactive)
19,CCOc1ccc(N=Cc2c(O)c3ccccc3oc2=O)cc1,> 40 µM (inactive)
20,Cc1oc2c(c(=O)c1C)C(=O)CC(c1ccccc1)C2 (stereo unspecified),> 40 µM (inactive)
21,O=C(NCC1CCCO1)c1c(O)c2ccccc2[nH]c1=O (stereo unspecified),> 40 µM (inactive)

row,Compound,EC50
1,O=c1c2ccccc2sn1-c1ccccc1,> 40 µM (inactive)
2,Cc1ccccc1NC(=O)c1ccccc1,> 40 µM (inactive)
3,CC(C)C(C(=O)O)N1C(=O)/C(=C/c2cccn2C)SC1=S (stereo unspecified),> 40 µM (inactive)
4,Cc1ccnc(SCc2cc(=O)c(OC(=O)c3ccco3)co2)n1,> 40 µM (inactive)
5,O=C(CCc1ccccc1)NCCCN1CCOCC1,> 40 µM (inactive)
6,O=C(NC(=S)NNS(=O)(=O)c1ccccc1)c1ccc([N+](=O)[O-])cc1,> 40 µM (inactive)
7,Cc1ccc2[nH]c3c(c2c1)CC/C(=C/c1ccccc1)C3=O,> 40 µM (inactive)
8,Cc1cc(C)c(S(=O)(=O)c2ccccc2)c(OC(=O)c2cc(F)c(F)cc2Cl)n1,> 40 µM (inactive)
9,CCCCCCCC(=O)N/N=C(/C)c1c(O)cc(C)oc1=O,> 40 µM (inactive)
10,CCOC(=O)/C(=C\c1cn(C)c2ccccc12)[N+](=O)[O-],> 40 µM (inactive)
11,O=Cc1cccn1-c1sc2c(c1C(=O)O)CCCC2,> 40 µM (inactive)
12,Cc1c(NC(=O)C(=O)/C=C(/O)c2ccccc2)c(=O)n(-c2ccccc2)n1C,> 40 µM (inactive)
13,CC(C)c1ccc2occ(-c3nn[nH]n3)c(=O)c2c1,> 40 µM (inactive)
14,NC(=S)N/N=C/c1coc2cc(Cl)ccc2c1=O,> 40 µM (inactive)
15,CCCCOC(=O)n1c(=O)oc2cc(S(=O)(=O)N3CCCCC3)ccc21,> 40 µM (inactive)
16,CCCCn1c(/N=C/c2ccccc2NS(=O)(=O)c2ccc(C)cc2)nc2ccccc21,> 40 µM (inactive)
17,O=S(=O)(Nc1cccc2c1CCCC2)c1ccc(Cl)cc1,> 40 µM (inactive)
18,CCc1nc(SCC(=O)c2ccc3c(c2)OCCO3)c2ccccc2n1,19.1 µM
19,Cc1nn(C(C)(C)C)c(OC(=O)c2ccc(Br)o2)c1Sc1ccccc1,> 40 µM (inactive)
20,CCc1ccc(CC2S/C(=C(\C#N)C(C)=O)NC2=O)cc1 (stereo unspecified),> 40 µM (inactive)
